Test results reported in EP4692089A1, “NITROGEN-CONTAINING HETEROCYCLIC COMPOUND AS AAK1 INHIBITOR” (Alicorn Pharmaceutical Co., Ltd., priority 2023, dated 2024).

Molecular target: T1, AAK1 (Homo sapiens, UniProt Q2M2I8)
T1 construct: HA; expressed in transfected cells; host or cells: 293T cells
Assay: Effect on AP2M1 phosphorylation in 293T cells co-transfected with AAK1 and AP2M1 (Western blot, anti-p-AP2M1)
Type: cell-based
Settings: p-AP2M1 level, incubated 3 h
Excerpt: Experimental objective: The objective of this test example is to determine the effect of compounds on AP2M1 phosphorylation in cells.
Background principle: Adaptor-associated kinase 1 (AAK1), also known as AP2-associated kinase 1, is a 104 kDa serine/threonine kinase. AAK1 interacts with the adaptor protein 2 (AP2) complex and phosphorylates the threonine residue in the micro-subunit of AP2 (AP2M1), thereby increasing its binding affinity for certain tyrosine-based or dileucine-based sorting signals of some membrane receptors. The inhibitory effect of compounds on AAK1 was evaluated by detecting the phosphorylation level of AP2M1 in cells, so as to screen candidate compounds.
On the second day, each T25 flask was co-transfected with 16 µg of plasmids (1 µg of AAK1/HA/pIRES and 15 µg of Flag/AP2MI/pcDNA) using a Lip2000 transfection reagent. On the third day, the cells were digested and resuspended, centrifuged at 1000 rpm for 5 minutes, and then seeded into 24-well plates at 450 µl per well (2 × 10^5 cells/well). Gradient dilutions of the compounds to be tested were prepared, 50 µl was added to each well, mixed thoroughly, and incubated at 37°C for 3 h. DMSO was set as a control, and cells without plasmid transfection were set as a blank control. After incubation, the cells were collected and washed twice with PBS. The cells were lysed on ice for 30 minutes using a cell lysis buffer containing the protease inhibitor PMSF. The concentration of protein samples was determined using a BCA kit. Protein electrophoresis: The voltage for the stacking gel was set at 60 V, and that for the separating gel was set at 120 V. After electrophoresis, electrotransfer was initiated. Electrotransfer conditions were set at 250 mA for 2 h. Blocking with 5% BSA was performed for 1 h. A specific primary antibody, anti-p-AP2M1, was added, and incubation was carried out overnight at 4°C on a shaker. Washing with TBST was conducted 4 times, with 2.5 minutes each time. A secondary antibody was incubated on a shaker at room temperature for 1 h. Washing with TBST was conducted 4 times, with 2.5 minutes each time. ECL was used for development to detect the expression level of p-AP2M1. Western blot bands were processed and converted using Image J and GraphPad software to calculate IC50.
IC50 (half maximal inhibitory concentration) refers to the half-inhibitory concentration of the measured antagonist. It can indicate the concentration of a certain drug or substance (inhibitor) that achieves half of the inhibition effect on certain biological processes (or certain substances involved in these processes, such as enzymes, cellular receptors, or microorganisms).

T1 sequence (Q2M2I8 whole entry): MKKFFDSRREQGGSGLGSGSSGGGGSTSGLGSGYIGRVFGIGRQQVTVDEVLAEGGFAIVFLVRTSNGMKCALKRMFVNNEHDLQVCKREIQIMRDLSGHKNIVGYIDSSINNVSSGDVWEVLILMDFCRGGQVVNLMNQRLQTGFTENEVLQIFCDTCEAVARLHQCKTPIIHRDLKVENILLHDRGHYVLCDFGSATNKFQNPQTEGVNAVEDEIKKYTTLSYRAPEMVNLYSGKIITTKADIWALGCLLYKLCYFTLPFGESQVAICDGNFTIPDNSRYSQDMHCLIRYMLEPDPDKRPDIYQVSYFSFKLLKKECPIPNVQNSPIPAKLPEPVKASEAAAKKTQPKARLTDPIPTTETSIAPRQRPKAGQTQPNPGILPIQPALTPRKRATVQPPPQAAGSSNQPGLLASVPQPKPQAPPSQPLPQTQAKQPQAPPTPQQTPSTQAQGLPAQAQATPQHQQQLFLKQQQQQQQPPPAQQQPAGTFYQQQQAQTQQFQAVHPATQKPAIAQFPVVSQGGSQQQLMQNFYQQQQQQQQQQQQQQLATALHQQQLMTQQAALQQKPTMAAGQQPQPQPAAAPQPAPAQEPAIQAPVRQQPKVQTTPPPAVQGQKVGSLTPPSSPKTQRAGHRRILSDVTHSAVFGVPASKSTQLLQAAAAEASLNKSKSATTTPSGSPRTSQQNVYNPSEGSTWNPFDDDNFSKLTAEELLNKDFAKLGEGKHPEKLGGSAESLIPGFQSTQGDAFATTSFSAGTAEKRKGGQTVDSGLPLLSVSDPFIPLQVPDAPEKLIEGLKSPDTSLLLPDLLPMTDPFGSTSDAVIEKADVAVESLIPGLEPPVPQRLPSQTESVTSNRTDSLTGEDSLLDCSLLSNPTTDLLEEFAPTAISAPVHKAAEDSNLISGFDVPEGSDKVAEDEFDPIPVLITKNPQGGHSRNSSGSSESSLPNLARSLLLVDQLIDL

- IC50: 10 to 100 nM
Structure (SMILES): CC(C)C[C@](C)(N)COc1ccc(-c2c[nH]c3ncc(F)cc23)nc1C(F)F [Compound 26, (S)-1-{[2-(difluoromethyl)-6-(5-fluoro-1H-pyrrolo[2,3-b]pyridin-3-yl)pyridin-3-yl]oxy}-2,4-dimethylpentan-2-amine]
